How the values were obtained:
[1] = system: hindgut protist symbiont populations; assay: Protist counts after imidacloprid treatment; assay type: in vivo, R. flavipes; conditions: 48 hr imidacloprid exposure
Protocol: To determine if imidacloprid indirectly or directly impacted protist and bacteria gut symbiont populations, post-hoc tests were performed using multiple independent termite colonies. Protist counts were made using five laboratory colonies as previously described. Bacterial CFU counts were done via aerobic culturing using two laboratory colonies; one that had been in the lab for >2 years (“colony 1”) and one collected from the field 1 month earlier (“colony 2”). […] Whole guts dissected from individual termites were sonicated in 250 μL of PBS, serially diluted, and spotted (2 μL) onto nutrient agar plates.

Reticulitermes flavipes = assay: Termite behavior and pathology observed in the bioassays (grooming, tunneling, light repellency); assay type: in vivo; conditions: sublethal concentration
[2] = system: gut bacteria (16S rDNA abundance); assay: 16S qPCR of relative bacterial DNA abundance in guts; assay type: in vivo, R. flavipes; conditions: 48 hours exposure; two colonies
Protocol: (§1) After incubation at 26° C. for 24 hours, plates were examined—spots producing 3-10 CFUs were used to estimate the total number of aerobic culturable bacteria per termite. In addition, dilutions of gut homogenates were directly plated onto nutrient agar; discs loaded with serial dilutions of imidacloprid were added to these plates to examine its direct impact on the culturable bacteria.
DNA was isolated from termite whole guts following control or imidacloprid treatments in bioassays using the Epicentre Yeast DNA extraction kit, including RNase treatment (Madison, Wis.). Following isolation, DNA samples were subjected to phenol-chloroform cleanup and concentrated using sodium acetate-ethanol precipitation. qPCR reactions were performed in triplicate with SensiFast SYBR No ROX kit (Bioline; Taunton, Mass.), 50 ng of sample DNA, nuclease-free water, and degenerate 16S rDNA primers. Primers amplified a 291 bp fragment containing the V4 hypervariable region of the 16S rRNA gene. Host DNA was quantified using primers specific to an apparent single-copy host gene, Actin 5C-1. Data were normalized to Actin 5C-1 to determine the relative abundance of 16S amplicons in the control and imidacloprid-treated DNA preparations.

[3] = system: aerobic, culturable bacterial community from the R. flavipes digestive tract; assay: Imidacloprid-loaded discs on plated gut homogenates; assay type: cell-based; conditions: concentrations of 1-1000-fold higher than used in the feeding assays
Protocol: as §1

[4] = system: host gut and protist/symbiont genes; assay type: in vivo
Protocol: After two days, a subset of ten termites was removed from each of the replicate colony treatments (20 total samples), cold-immobilized, surface-sterilized by a serial rinse in 0.3% sodium hypochlorite (1×) and sterilized water (2×), and dissected on Parafilm to collect digestive tracts, including salivary glands. Digestive tracts were transferred into RLA Lysis Buffer (Promega, Fitchburg, Wis., USA) and stored at −70° C. until RNA isolation. RNA extraction and cDNA synthesis was performed.
Experiments were designed after MIAME guidelines. A type II microarray design was used with a common-reference strategy. The common reference consisted of a normalized blend of all RNA samples included in the experiment. This common reference was co-hybridized against each replicate sample on single microarrays. Dye swaps were performed between replicate samples and references to check for potential dye impacts on spot intensity. […] Specifically, such microarrays contained a mix of ˜14,500 cDNA oligonucleotides representing 10,500 host gut and protist/symbiont genes, including stereotypical immune response genes, thereby providing simultaneous assessments of host and protist gene expression. Reported analyses consisted of five pairwise comparisons to a common control as denoted by the numbers 1-5 in FIG. 4. More specific microarray data are provided in S15-S20 Tables of Sen et al. 2015, PLoS ONE 10(4): e0123391 (the “Sen Article”), which is hereby incorporated by reference herein in its entirety. […] Genbank accession numbers for sequences at each microarray position are provided in S21-S23 Tables of the Sen Article.
Before comparative analysis, the individual signal intensity values obtained from the microarray probes were log-transformed (using 2 as the base) and normalized among all individual samples included in the study. […] After the data were normalized, t-tests were used to make probe-by-probe comparisons among treatments. In each comparison, a p-value and fold change were computed for all microarray loci. In addition to p-values, q-values were computed. While the p-value measures the minimum statistical false-positive rate incurred when setting a threshold for test significance, the q-value measures the minimum false-discovery rate incurred when calling that test significant.
The generated contigs and the remaining orphan sequences were used for further analyses using the program BLAST2GO for identification and annotation. By using the inbuilt BLASTx algorithm, these sequences were used as queries in BLASTx searches against the Genbank non-redundant (nr) database with an e-value cut-off of ≤1e-03. The putative identification, annotation, and Gene Ontology (GO) terms for the sequences also were obtained through BLAST2GO. KEGG analyses were also performed.

amidohydrolase 2 gene = assay: qPCR of amidohydrolase 2 expression after kanamycin treatment and B. bassiana challenge; assay type: in vivo, R. flavipes; conditions: 5% kanamycin 48 h, then B. bassiana; compared to water treated controls
Description: To investigate whether symbiont removal reduced amidohydrolase expression, groups of 10 workers from three independent colonies were subjected to a treatment of 5% kanamycin (controls received water only) for 48-hours and subsequently challenged with a low dose of B. bassiana conidia (as above). 5% Kanamycin was used for bacterial symbiont removal based on extensive preliminary research. These bioassays were held for 48-hours before termite guts were dissected for RNA extraction. cDNA was synthesized using the Bioline SensiFast cDNA Synthesis kit using 1 μg total RNA as template. qPCR was performed using the SensiFast no ROX SYBR Master Mix (Bioline) and amidohydrolase 2 gene specific primers as well as Actin 5C as a reference gene (see Table S.2 of the Peterson & Scharf Article).

[5] = system: termite workers challenged with B. bassiana; assay: Post-hoc bioassay of termite susceptibility to B. bassiana after kanamycin; assay type: in vivo, R. flavipes
Protocol: Similarly, post-hoc bioassays were performed to determine if 5% kanamycin treatment was sufficient to increase termite susceptibility to B. bassiana. As above, groups of 10 termites were treated with 5% kanamycin or water (controls) for 48-hours, and then inoculated with a low dose of B. bassiana conidia suspended in 0.5% Tween-20 or a blank of 0.5% Tween-20 solution (controls). All together, these four groups allowed the investigators to account for any baseline mortality caused by antibiotic treatment. These bioassays were held for 7 days before scoring survivorship.

[6] = gut, 2 days post-exposure, vs solvent control
[7] = passing array positions, before contig formation

SMILES | Reduction of representative protist groups [1] | Treated termite colonies with reduced protist populations [1] | Termite behaviors (tunneling, grooming, light repellency) (Reticulitermes flavipes) | Effect on total bacterial DNA abundance (16S PCR signals) [2] | Growth suppression of culturable gut bacteria by imidacloprid-impregnated paper discs [3] | Effect on expression of innate immune / antimicrobial genes ([4]; gut, 2 days) | Differentially expressed contigs and singletons, Overall [4, 6] | Downregulated contigs and singletons, Host [4, 6] | Downregulated contigs and singletons, Mixed [4, 6] | Downregulated contigs and singletons, Symbiont [4, 6] | Downregulated contigs and singletons, Totals [4, 6] | Upregulated contigs and singletons, Mixed [4, 6] | Upregulated contigs and singletons, Symbiont [4, 6] | Upregulated contigs and singletons, Totals [4, 6] | Downregulated array positions [4, 7] | Upregulated transcripts in the array (array positions) [4, 7] | Reduction of amidohydrolase 2 gene expression in pathogen challenged termites (amidohydrolase 2 gene) | Increase in termite susceptibility to B. bassiana ([5]; 5% kanamycin 48 h, normalized mortality at 7 days post inoculation) | Increase in termite worker susceptibility to B. bassiana ([5]; 5% kanamycin, 7 days)
O=[N+]([O-])NC1=NCCN1Cc1ccc(Cl)nc1 [I, imidacloprid] | 25-50% | 5 of 6 | neither produced tunnels nor were repelled by light | did not detect any impact | failed to suppress the growth | failed to substantially alter | 393 | 8 | 3 | 205 | 216 | 1 | 19 | 177 | 504 | 260 | – | – | –
NC[C@H]1O[C@H](O[C@H]2[C@H](O)[C@@H](O[C@H]3O[C@H](CO)[C@@H](O)[C@H](N)[C@H]3O)[C@H](N)C[C@@H]2N)[C@H](O)[C@@H](O)[C@@H]1O [kanamycin] | – | – | – | – | – | – | – | – | – | – | – | – | – | – | – | – | ~5 × | 3 × | 3 fold
